According to patent US20250368552A1, “INHIBITION OF BIOFILMS GROWTH IN PROCESS WATERS WITH MICROBIAL INTERACTIVE COMPOSITIONS” (ECOLAB USA INC., priority 2024, published 2025):

Tests used:
[1] = test system: indigenous microbial populations of cooling water sources; assay: MIC of hypochlorite (as free chlorine) for biofilm formation in commercial cooling water sources; format: cell-based; details: for MIC hypochlorite: hypochlorite alone, as free chlorine
Description: Additional testing was completed to show the benefit of reducing a biocidal dose with the method of preventing biofilms described herein. Various commercial cooling water sources were evaluated for the MIC of hypochlorite (Minimum Inhibition Concentration as free chlorine for biofilm formation) as the biocide dosed with the Chemistry A+Chemistry E. The test conditions and results are shown in Table 6.
Under certain conditions the biocide dosing requirement was reduced by over 90%.

[2] = test system: Bact P2 (Cooling Water Bacteria Population 2), planktonic growth; assay: Planktonic inhibition (minimum inhibition concentration in liquid culture); format: cell-based; details: minimum inhibitory concentration
Text: (§1) Another plate was run according to the same procedures outlined in Examples 1-3. The experiment tested Chemicals including Alkyl Poly Glucoside, QAT Biocide, Chemical B, Chemical A+D for Planktonic inhibition as well as Biofilm Inhibition as reflected in Table 4.
(§2) The results in Table 4 show minimum biofilm inhibition concentrations (ppm) when treating different bacterial populations with each of the chemicals alone.
(§3) Minimum Inhibition Concentration (MIC): at this concentration, bacterial population stopped growth under the above incubation conditions
(§4) OD600 turbidity: bacterial concentration is correlated with the medium turbidity, The planktonic concentration can be calculated using a turbidity to bacterial count concentration model. If OD600 is <0.1, it is considered bacterial counts <10^3 cfu/ml.

[3] = test system: Bact P1 (Cooling Water Bacteria Population 1), planktonic growth; assay: as above; format: cell-based
Text: as §1, §2, §3, §4

[4] = test system: planktonic bacteria; assay: Average planktonic bacterial concentration in liquid culture (plate count / OD600 turbidity); format: cell-based; details: control 8.7
Text: (§5) Additional testing was run to show various evaluated concentrations of chemistries including No Treatment (Control), QAT Biocide, Chemical B, and Chemical A+E for assessing biofilm reduction based on average planktonic bacterial concentrations as shown in Table 5.
The following methodology for the bacterial concentration in liquid culture were used:
Plate count: plate the treated bacterial mixture after serial dilutions with required mediums like R2A, Petrifilms etc.
as §4

[5] = test system: biofilm; assay: Biofilm quantity on surface by crystal violet staining, biofilm reduction vs control; format: cell-based; details: for Avg Biofilm Reduction: (Treatment OD595 - Control OD595)*100/Control OD595, negative = less biofilm
Text: as §5
The following methodology for the biofilm concentration on surface were used:
Biofilm quantity: biofilm quantity grew on surface can be determined by crystal violate staining, followed by 3 times of washing and then eluting.
Biofilm Reduction from chemical treatment is calculated by the following: (average Treatment OD595-average Control OD595)*100/average Control OD595 where the CV absorbance range used was 580-595 nm. If OD595 was <0.1, it was considered as non-biofilm formation. CV absorbance range 580-595 nm was used in different tests.

[6] = test system: Cooling Water Bacteria Population 2; assay: Biofilm inhibition test, 96 well microtiter plate, crystal violet stain (similar to ASTM E2799-12 MBEC assay); format: cell-based, Pseudomonas species in cooling water systems
Text: (§6) The bacterial species used for the biofilm inhibition testing included: 1) cooling water bacterial population 1=total aerobic bacterial population that was obtained from cooling water samples in cooling water systems and grown on standard nutrient agar for aerobic bacteria, and 2) cooling water bacterial population 2=Pseudomonas species in cooling water systems. Pseudomonas species were collected from cooling water samples from selective media. The collected Pseudomonas population from cooling water systems were stored at −80° C. and re-inoculated into 100 mL fresh test medium (described below), incubated at a rotary shaker at 35° C., […] for 18-24 hours before used as a starter culture.
The concentration range for the testing of these microorganisms for the waters was 10^4-10^8 CFU/ml.
The following Examples utilized a 96-well microtiter plate and aerobic incubation.
The Biofilm inhibition testing utilized a test medium with a final concentration of 16% test medium in the water. […]
(§7) To quantify the biofilm and effect of the chemicals, the minimal biofilm eradication concentration (MBEC) using a method similar to the ASTM method for Testing disinfectant efficacy against Pseudomonas aeruginosa Biofilm using MBEC Assay (E2799-12), Standard Test Method for Testing Disinfectant Efficacy against Pseudomonas aeruginosa Biofilm using MBEC Assay. […]

[7] = test system: Cooling Water Bacteria Population 1; assay: as above; format: cell-based
Text: as §6, with “culture. […]” for “culture.”
as §7
The control where there was no chemical treatment present indicated a steady presence of biofilm build up between absorbance 0.5 to 0.6. The biofilm concentrations are correlated to the absorbance at wavelength 580-595 nm (depicted in figures as Obs 580 nm). […]

[8] = concentration giving biofilm reduction
[9] = minimum biofilm inhibition concentration

## OCl [hypochlorite]
[1]; Cooling Water Source 1
  MIC hypochlorite: 25 ppm
  MIC hypochlorite (ppm) With 6 ppm Chemistry A + Chemistry E: 3.1 ppm
[1]; Cooling Water Source 2
  MIC hypochlorite: 25 ppm
  MIC hypochlorite (ppm) With 6 ppm Chemistry A + Chemistry E: 6.3 ppm
[1]; Cooling Water Source 3
  MIC hypochlorite: 12.5 ppm
  MIC hypochlorite (ppm) With 6 ppm Chemistry A + Chemistry E: 0.8 ppm
[1]; Cooling Water Source 4
  MIC hypochlorite: 25 ppm
  MIC hypochlorite (ppm) With 6 ppm Chemistry A + Chemistry E: 12.5 ppm

## CCCCCCCCCC[N+](C)(C)CCCCCCCCCC.[Cl-] [QATS Biocide, Didecyl Dimethyl Ammonium Chloride]
[2]
  Planktonic Inhibition Bact P2: 1.6 ppm
[3]; Table 4, Bact P1 and Bact P2
  Concentration that effectively killed planktonic bacteria: ≤ 3 ppm
[3]; minimum inhibitory concentration, Bact P1
  Planktonic Inhibition Bact P1: 3 ppm
[4]; 1.6 ppm
  Avg Planktonic Bacterial Conc: 8.672 Log cfu/ml
[4]; 3.1 ppm
  Avg Planktonic Bacterial Conc: 8.688 Log cfu/ml
[4]; 6.2 ppm
  Avg Planktonic Bacterial Conc: 8.609 Log cfu/ml
[4]; 12.5 ppm
  Avg Planktonic Bacterial Conc: 8.492 Log cfu/ml
[4]; 25.0 ppm
  Avg Planktonic Bacterial Conc: 8.590 Log cfu/ml
[4]; 50.0 ppm
  Avg Planktonic Bacterial Conc: <3.000 Log cfu/ml
[4]; 100.0 ppm
  Avg Planktonic Bacterial Conc: <3.000 Log cfu/ml
[5]; 1.6 ppm
  Avg Biofilm Reduction: 49.9%
[5]; 3.1 ppm
  Avg Biofilm Reduction: 54.0%
[5]; 6.2 ppm
  Avg Biofilm Reduction: 108.4%
[5]; 12.5 ppm
  Avg Biofilm Reduction: −3.5%
[5]; 25.0 ppm
  Avg Biofilm Reduction: 34.7%
[5]; 50.0 ppm
  Avg Biofilm Reduction: −89.1%
[5]; 100.0 ppm
  Avg Biofilm Reduction: −12.1%
[5]; Table 5
  Concentration showing both planktonic and biofilm control: greater than 50 ppm
[6]; [8]
  Biofilm reduction Bact P2: 0.8 ppm
[6]; [9]
  Total Biofilm Inhibition Bact P2: 1.6 ppm
[7]; [8]
  Biofilm Reduction Bact P1: 0.8 ppm
[7]; [9]
  Total Biofilm Inhibition Bact P1: 6 ppm
